Patent US9417239B2, “Assay to determine LRRK2 activity in parkinson's disease” (PARKINSON'S INSTITUTE, priority 2011, dated 2016)

Experiments:
LRRK2 [1] = target: T1, LRRK2 (Homo sapiens, UniProt Q5S007, D2017A); conditions: cited from earlier work
T1 construct: expressed in transfected cells; host or cells: HEK293 Flp-in T-REx, doxycycline-induced

LRRK2 [2] = target: T2, LRRK2 (Homo sapiens, UniProt Q5S007); assay: Immunoblot of LRRK2 phosphosites after GFP immunoprecipitation from HEK293 T-REx cells expressing GFP-LRRK2 variants; type: cell-based; conditions: T-REx cells expressing active LRRK2; 1 μM LRRK2-IN1 for 90 minutes
Method: (§1) Protein concentrations were determined using the Bradford method with BSA as the standard.

LRRK2 [3] = target: T1, LRRK2; assay: as above; type: cell-based; conditions: kinase inactive LRRK2 mutants; after LRRK2-IN1 treatment
Method: as §1

14-3-3 binding to LRRK2 = 14-3-3 binding to LRRK2 (Homo sapiens, UniProt Q5S007); assay: 14-3-3 overlay (far-western) assay of immunoprecipitated GFP-LRRK2; type: cell-based; conditions: 1 μM LRRK2-IN1 for 90 minutes
Method: The indicated variants of full-length GFP-tagged LRRK2 were expressed from a stable and inducible locus in HEK293 T-REx cells and subjected to immunoprecipitation analysis. Immunoprecipitates were subjected to immunoblot analysis with anti-GFP, and anti-phospho-Ser910 (αpS910), anti-phospho-Ser935 (αpS935), anti-phospho-Ser955 (αpS955), and anti-phospho-Ser973 (αpS973) antibodies. 14-3-3 binding to the LRRK2 variants was assessed by 14-3-3 far-western blot analyses. All blots were co-probed with phospho antibody and GFP (total protein) monoclonal antibody and analyzed by Odyssey® LI-COR analysis; a representative total GFP blot is shown.
The Nanotrap GFP-Trap_A matrix was from ChromoTek (GTA-20). […] LiCOR Dyelight labelled 14-3-3 protein (recombinant, His tagged BMH1, a kind gift of Dr. Dario Alessi) was prepared as per the manufacturer's instructions and used to detect 14-3-3 binding. […] Fluorescent secondary antibodies were from Li-COR (Lincoln Nebr.) or Rockland immunochemicals (Rockland Ill.) LRRK2 Immunoprecipitation assays. Cell lysates were prepared in Lysis buffer (1.0 ml per 15 cm dish) and subjected to immunoprecipitation with GFP-trapA beads at 10 ul beads per 1.0 ml lysate for 1 hr. […]

GFP-LRRK2 = assay: Fluorescence microscopy of GFP-LRRK2 localization in HEK-293 Flp-in T-REx cells; type: cell-based, human; conditions: wild-type GFP-LRRK2; 1 μM LRRK2-IN1 for 90 minutes
Method: T-REx cells lines harboring the indicated LRRK2 variants were induced for 24 h with 1 μg/ml doxycycline to induce expression of GFP-LRRK2. After induction, cells were exposed to vehicle control (DMSO) or 1 μM LRRK2-IN1 for 90 minutes, then fixed with paraformaldehyde and GFP fluorescence was imaged. Representative fluorescent micrographs of cultures for the indicated phosphosite mutants in the presence and absence of inhibitor are shown, localization analysis was performed at least three times. White scale bar represents 10 microns.
HEK-293 Flp-in T-REx cells harbouring GFP tagged LRRK2 and PD associated mutations were plated in 4-well glass bottom, CC2 coated chamber slides (Nunc). One day after plating, cells were induced with 1 μg/ml doxycycline and 24 hr later, cells were fixed in 4% paraformaldehyde buffered in phosphate buffered saline (purchased from Electron Microscopy Sciences, #15710). Cells were imaged under on a Nikon TiE microscope with a 60× objective.

LRRK2 [4] = target: T2, LRRK2; assay: Immunoprecipitation of FLAG-tagged wild-type LRRK2 from treated HEK 293 cells, in vitro autophosphorylation kinase assay, phosphosite immunoblot; type: cell-based; conditions: transient expression, 1 μM LRRK2-IN1 for 90 minutes
Description: Immunoprecipitates were extensively washed then subjected to in vitro kinase assay in the presence or absence of ATP,in the presence or absence of LRRK2-1N1. Reaction products were immunoblotted with antiphospho-Ser1491 (αpThr1491), anti-phospho-Ser910 (αpS910), anti-phospho-Ser935 (αpS935), anti-phospho-Ser955 (αpS955), and anti-phospho-Ser973 (αpS973) antibodies.
Immunoprecipitation Kinase Assay conditions. Wild-type LRRK2 was transiently expressed in HEK293 cells using polyethylenimine for approximately 36 hours, then cells were treated with DMSO or 1 μM LRRK2-IN1 for 90 minutes. Lysates were then subjected to immunoprecipitation with anti-FLAG M2 agarose at a ratio of 1 μl beads per 100 μg of lysate for 2 hours.

LRRK2 [5] = assay: Western blot of LRRK2 phosphorylation sites, FLAG tagged LRRK2 in HEK293 T-Rex cells (FIG. 4); type: cell-based, human; conditions: kinase dead and inhibitor resistant mutant samples
Description: Full length, FLAG tagged, wild-type or mutant LRRK2 (as indicated in FIG. 4) was expressed from a stable/inducible locus of HEK293 T-Rex cells (Invitrogen).

T2 sequence (Q5S007 whole entry): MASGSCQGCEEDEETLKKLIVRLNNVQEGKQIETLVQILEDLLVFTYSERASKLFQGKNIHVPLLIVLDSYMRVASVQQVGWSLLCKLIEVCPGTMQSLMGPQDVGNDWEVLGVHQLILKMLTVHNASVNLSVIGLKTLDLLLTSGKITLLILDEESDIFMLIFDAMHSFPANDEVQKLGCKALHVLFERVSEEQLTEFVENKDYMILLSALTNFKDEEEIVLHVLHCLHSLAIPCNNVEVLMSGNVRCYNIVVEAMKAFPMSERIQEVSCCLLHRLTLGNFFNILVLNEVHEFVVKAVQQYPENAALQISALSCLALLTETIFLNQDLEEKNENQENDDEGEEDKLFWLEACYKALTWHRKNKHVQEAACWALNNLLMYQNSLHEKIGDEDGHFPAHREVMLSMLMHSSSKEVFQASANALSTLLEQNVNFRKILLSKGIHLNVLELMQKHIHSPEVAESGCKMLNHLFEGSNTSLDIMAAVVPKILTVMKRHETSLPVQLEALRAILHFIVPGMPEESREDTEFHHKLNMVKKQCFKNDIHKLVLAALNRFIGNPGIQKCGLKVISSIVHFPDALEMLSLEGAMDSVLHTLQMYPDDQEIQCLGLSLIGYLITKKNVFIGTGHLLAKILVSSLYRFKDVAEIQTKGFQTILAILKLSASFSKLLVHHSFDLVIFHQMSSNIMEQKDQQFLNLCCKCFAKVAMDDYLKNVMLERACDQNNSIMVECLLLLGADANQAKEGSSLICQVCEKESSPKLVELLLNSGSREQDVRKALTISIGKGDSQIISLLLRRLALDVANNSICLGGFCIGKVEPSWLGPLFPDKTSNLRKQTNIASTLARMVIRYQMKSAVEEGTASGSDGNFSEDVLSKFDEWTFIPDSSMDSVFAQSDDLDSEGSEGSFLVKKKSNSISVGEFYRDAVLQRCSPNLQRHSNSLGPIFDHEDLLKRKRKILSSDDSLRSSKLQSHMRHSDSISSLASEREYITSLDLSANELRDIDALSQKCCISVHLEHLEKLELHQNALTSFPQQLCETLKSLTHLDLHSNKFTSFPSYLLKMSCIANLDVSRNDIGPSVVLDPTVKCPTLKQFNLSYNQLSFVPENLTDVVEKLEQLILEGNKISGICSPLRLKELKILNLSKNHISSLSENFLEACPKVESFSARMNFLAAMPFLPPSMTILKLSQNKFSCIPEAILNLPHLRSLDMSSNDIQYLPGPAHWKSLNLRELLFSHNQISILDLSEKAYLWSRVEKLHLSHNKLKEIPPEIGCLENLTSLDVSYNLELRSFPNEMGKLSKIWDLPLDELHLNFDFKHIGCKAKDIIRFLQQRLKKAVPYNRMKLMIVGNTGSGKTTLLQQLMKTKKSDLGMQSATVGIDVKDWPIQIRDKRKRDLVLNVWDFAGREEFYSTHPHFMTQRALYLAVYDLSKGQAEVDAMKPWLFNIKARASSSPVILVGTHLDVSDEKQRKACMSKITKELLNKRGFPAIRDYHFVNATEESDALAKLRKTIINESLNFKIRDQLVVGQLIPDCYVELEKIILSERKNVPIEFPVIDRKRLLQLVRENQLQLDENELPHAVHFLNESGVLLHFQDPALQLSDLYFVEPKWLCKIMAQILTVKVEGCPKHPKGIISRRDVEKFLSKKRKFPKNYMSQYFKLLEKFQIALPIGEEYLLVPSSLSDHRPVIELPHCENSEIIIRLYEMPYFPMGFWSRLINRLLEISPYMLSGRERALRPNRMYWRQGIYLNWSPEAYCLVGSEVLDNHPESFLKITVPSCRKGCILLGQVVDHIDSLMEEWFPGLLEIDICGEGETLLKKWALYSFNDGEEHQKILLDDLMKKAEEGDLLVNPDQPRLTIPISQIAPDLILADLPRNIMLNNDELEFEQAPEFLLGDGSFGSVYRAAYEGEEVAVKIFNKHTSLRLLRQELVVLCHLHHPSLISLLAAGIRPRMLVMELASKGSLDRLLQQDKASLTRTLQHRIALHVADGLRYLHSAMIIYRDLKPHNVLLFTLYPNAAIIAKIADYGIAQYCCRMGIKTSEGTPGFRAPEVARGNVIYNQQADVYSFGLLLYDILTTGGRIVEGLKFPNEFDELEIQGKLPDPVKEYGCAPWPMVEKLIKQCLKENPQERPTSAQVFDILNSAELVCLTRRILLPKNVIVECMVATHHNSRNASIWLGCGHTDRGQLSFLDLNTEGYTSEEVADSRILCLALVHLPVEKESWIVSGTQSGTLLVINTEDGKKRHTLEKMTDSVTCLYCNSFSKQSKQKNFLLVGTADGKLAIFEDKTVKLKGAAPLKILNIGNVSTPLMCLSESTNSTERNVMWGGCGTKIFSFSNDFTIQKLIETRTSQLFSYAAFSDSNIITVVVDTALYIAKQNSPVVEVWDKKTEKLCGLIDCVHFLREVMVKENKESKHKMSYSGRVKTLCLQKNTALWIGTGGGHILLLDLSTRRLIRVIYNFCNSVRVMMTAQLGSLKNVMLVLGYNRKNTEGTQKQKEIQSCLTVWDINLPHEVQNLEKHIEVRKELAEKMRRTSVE
T1 sequence (Q5S007 whole entry D2017A): as the sequence (Q5S007 whole entry) above, with D2017A counted along it
Chain of 14-3-3 binding to LRRK2 (Q5S007 whole entry): as the sequence (Q5S007 whole entry) above

Row | Compound | basal level of LRRK2 phosphorylation at 910/935 in kinase inactive mutants (LRRK2 [1]) | phosphorylation of Serines 910/935 (LRRK2 [2]) | phosphorylation of Serines 955 and 973 (LRRK2 [2]) | phosphorylation of Serines 910 and 935 or 955 and 973 in kinase inactive mutants (LRRK2 [3]) | direct 14-3-3 association with LRRK2 (14-3-3 binding to LRRK2) | localization of GFP tagged LRRK2 (GFP-LRRK2) | phosphorylation of Ser910, Ser935, Ser955 and Ser973 of FLAG tagged wild-type LRRK2 (LRRK2 [4]) | specificity of the inhibitor effects on phosphorylation of serines 955 and 973 (LRRK2 [5])
1 | Cc1cncc2cccc(S(=O)(=O)N3CCCNC[C@@H]3C)c12 [H-1152] | did not perturb | – | – | – | – | – | – | –
2 | COc1cc(C(=O)N2CCC(N3CCN(C)CC3)CC2)ccc1Nc1ncc2c(n1)N(C)c1ccccc1C(=O)N2C [LRRK2-IN1] | – | complete dephosphorylation | dephosphorylation | no change was observed | reduced direct 14-3-3 association | re-localization of the GFP tagged enzyme to intracellular puncta, large accumulations and microtubule like structures | dephosphorylated at the corresponding residues | specific to LRRK2
